In US7220732B2, “Compounds useful as photodynamic therapeutic agents” (priority 2002, dated 2007):
Read-outs that look alike come from different tables or passages of the source.

Tests used:
MRC5 cells [1] = assay: Light/dark cytotoxicity study (MTT) in MRC5 cells; type: cell-based
Procedure: (§1) MRC5 and HeLa cell cultures were maintained in MEM (minimum essential medium) containing 10% (v/v) foetal calf serum (FCS), 1% (v/v) non-essential amino acids, 2 μg/ml Fungizone (Trade Mark) (amphotericin B), 50 μg/ml penicillin, 50 μg/ml streptomycin, 20 mM HEPES and 1% (v/v) L-Glutamine. Cells were passaged at least twice before use in the cytotoxicity assays.
(§2) Stock haematoporphyrin water-dimethyl sulphoxide (DMSO) (100:1 (v/v)) solutions were diluted with MEM containing 10% FCS. Cells were seeded at 5,000 cells/well in 96-well plates and incubated for 24 hr at 37° C. The 24 hour incubation period was chosen having regard to the slower uptake of haernatoporphyrin in the absence of Cremophor, when compared to the compounds of the present invention in the presence of Cremophor (see below). Cells were then incubated with haematoporphyrin in the dark for 24 hr at 37° C. The haematoporphyrin laden culture medium was then removed by filtration, the cells were washed with PBS and fresh culture medium was added to each well. A 500 W light source, passed through a red glass and water filter barrier, (to ensure cells are irradiated with light of wavelength greater than 570 nm) was used to irradiate the plates for both 15 and 30 min. Following irradiation, the cells were incubated for a further 48 hr at 37° C. before being assessed for cell survival.
(§3) Stock 2a or 2b water-Cremophor EL (Trade Mark—CAS 61791-12-6) (1:250 (v/v)) solutions were diluted with MEM containing 10% FCS. Cells were seeded at 5,000 cells/well in 96-well plates and incubated for 24 hr at 37° C. Cells were then incubated with 2a or 2b in the dark for 3 hr at 37° C. The 3 hour incubation period was chosen to reflect the faster cellular uptake of 2a or 2b in the presence of Cremophor, when compared to the cellular uptake of haematoporphyrins in the absence of Cremophor. The 2a or 2b laden culture medium was then removed by filtration, the cells were washed with PBS and fresh culture medium was added to each well. The plates were then irradiated using a 500 W light source passed through a red glass and water filter barrier, (thereby ensuring cells are irradiated with light of wavelength greater than 570 nm) for both 15 and 30 min.
(§4) Following irradiation, the cells were incubated for a further 48 hr at 37° C. before being assessed for cell survival. The dark toxicity of compounds of the present invention was also assessed in each experiment.
(§5) Cell viability was estimated using the standard MTT (microtiter tetrazolium) assay. This assay measures mitochondrial dehydrogenase activity and is based on the reduction of a soluble yellow tetrazolium salt to a blue, insoluble MTT formazan product by this enzyme. The subsequent colour change produced by viable cells was quantified using a plate reader (VICTOR^2 1420 multilabel HTS counter, Wallac). As mentioned above under the headings “Cytotoxicity”, the cells are incubated at 37° C. for 48 hours, following which the MTT solution was added to the cells at a final concentration of 0.5 mg/ml and incubated for 3 hr at 37° C. The MTT solution was then removed by filtration and 100 μl DMSO was added to each well in order to lyse the cells and release the formazan dye. The plates were read 1 hr later at 540 nm.
(§6) Prism (Trade Mark) […] was used to graph the data obtained from the MTT assays and the uptake/efflux experiments. This programme allows non-linear regression analysis and the generation of sigmoidal dose response curves. Prism (Trade Mark) also automatically calculates EC50 values.
(§7) Light toxicity assays were also carried out as described above under “Assay methods” in HeLa and MRC5 cells for haematoporphyrin (FIGS. 9 and 10), 2a (FIGS. 11 and 12) and 2b (FIGS. 13 and 14).

HeLa cells [2] = assay: Light/dark cytotoxicity study (MTT) in HeLa cells; type: cell-based
Procedure: as §1, §2, §3, §4, §5, §6, §7

[3] = Fluorescence emission and fluorescence quantum yield; type: physicochemical
From the text: The absorption bands of each photosensitiser are relatively insensitive to solvent changes with solutions in water/Cremophor resulting in a further bathochromic shift of ˜10 nm (Table 1). Excitation of chloroform solutions of the 2a and 4a at 635 nm gave a fluorescence band at 672 and 673 nm respectively (FIG. 2, Table 2). […] The reduction in fluorescence quantum yield in the series would imply more efficient population of the triplet excited state which would benefit singlet oxygen production. The ability of 2 and 4 to produce singlet oxygen would be a prerequisite to them being potential PDT agents.

HeLa cells [4] = assay: Fluorescence microscopy uptake study in HeLa cells; type: cell-based; conditions: 10^−5 M, water/Cremophor
Procedure: (§8) Cells were seeded at a density of 30,000 cells/well in chamber slides and allowed to adhere for 24 hr. A compound of the present invention (10^−5 M) was then added to each chamber and incubated at 37° C. in the dark over time, for example, 15 min, 30 min, 1 hr, 3 hr and 6 hr. The medium was removed after the specified time and the cells were washed 4 times with medium free of that compound of the invention. The cells were then fixed with 3.7% (v/v) formaldehyde for 15 min at 37° C. The fixative solution was removed and the cells were washed twice with sterile PBS. DAPI nuclear stain (1/1000) was then incubated with the cells for 10 is min at 37° C., following which the cells were washed twice with PBS. Cells were then mounted in Vectashield (Trade Mark) mounting medium.
LabWorks (Bioimaging Systems) was used to calculate the average fluorescence intensity per cell for each of the different time points used in the uptake and efflux studies for the compounds of the present invention. […] The DAPI filter was used to accurately count the number of cells in each field of view and the rhodamine filter was used to quantify the fluorescence of the compounds of the present invention. […]
(§9) Using the assay method set out above under the heading “Fluorescence Microscopy”, the uptake of 2a was examined for HeLa and MRC5 […] cell lines and the data are illustrated in FIGS. 6a and 6b, respectively. […]

MRC5 cells [5] = assay: Fluorescence microscopy uptake study in MRC5 cells; type: cell-based; conditions: 10^−5 M
Procedure: as §8
LabWorks (Bioimaging Systems) was used to calculate the average fluorescence intensity per cell for each of the different time points used in the uptake and efflux studies for the compounds of the present invention. […] The DAPI filter was used to accurately count the number of cells in each field of view and the rhodamine filter was used to quantify the fluorescence of the compounds of the present invention.
as §9

λ em (fluorescence band) ([3]; CHCl3, room temperature, excitation at 635 nm): 672 nm
λ em (fluorescence band) ([3]; Water/Cremophor (100:1), room temperature): 683 nm
Φf (fluorescence quantum yield) ([3]; relative to magnesium tetra-tert-butylphthalocyanine in CHCl3, room temperature): 0.34
SMILES: F[B-]1(F)n2c(-c3ccccc3)cc(-c3ccccc3)c2N=C2C(c3ccccc3)=CC(c3ccccc3)=[N+]21 [Compound 2a]
EC50 (MRC5 cells [1]; MRC5, 0 J/cm^2 light (no light), read-out: EC50 (dark toxicity)): 3.5 µM
EC50 (MRC5 cells [1]; MRC5, 8 J/cm^2 light (15 mins from a 500 W light source), read-out: EC50): 2 µM
EC50 (MRC5 cells [1]; MRC5, 16 J/cm^2 light (30 mins from a 500 W light source), read-out: EC50): 0.46 µM
EC50 (HeLa cells [2]; 0 J/cm^2 light (no light), read-out: EC50 (dark toxicity)): 23 µM
EC50 (HeLa cells [2]; 8 J/cm^2 light (15 mins from a 500 W light source), read-out: EC50): 4.5 µM
EC50 (HeLa cells [2]; 16 J/cm^2 light (30 mins from a 500 W light source), read-out: EC50): 1.3 µM
time of maximum uptake (HeLa cells [4]): 300 min
time of maximum uptake (MRC5 cells [5]): 200 min
